Measured values published in paper PMC11599453 (The Journal of Biological Chemistry, 2024).
Changes are numbered by the printed parent chain. “And” between values parts separate entries of the source, which are not always exact repeats. Equal entries are not always repeated. Structures can show the parent of a compound that is named as a salt.

Assays:
[1] = biological target: CRISP2 (cysteine-rich secretory protein 2), purified, fluorescently labeled (UniProt P16562); experiment: MST; 100 nM RED-tris-NTA-labeled CRISP2 (or L98G Y99P mutant) mixed with a serial dilution of unlabeled A1BG or Ig domain; 20 mM Tris pH 7.5, 30 mM NaCl, 0.05% Triton X-100; Monolith NT.115, 80% laser power; one site specific fit; triplicates
CRISP2 [2] = biological target: T1, CRISP2 (Homo sapiens, UniProt P16562); experiment: Microscale thermophoresis (MST) binding to fluorescently labeled CRISP2
T1 sequence (P16562 22-243): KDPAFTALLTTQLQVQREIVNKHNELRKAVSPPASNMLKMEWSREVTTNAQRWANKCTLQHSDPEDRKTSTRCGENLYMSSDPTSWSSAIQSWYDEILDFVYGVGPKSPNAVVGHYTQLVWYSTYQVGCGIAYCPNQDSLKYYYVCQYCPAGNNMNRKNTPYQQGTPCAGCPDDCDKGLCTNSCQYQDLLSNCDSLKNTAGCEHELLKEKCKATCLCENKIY
Protocol: (§1) MST is based on the diffusion of a fluorescently labeled molecule along a microscopic temperature gradient. In this assay, the free protein diffuses faster than its ligand-bound form. Ligands can range from small ions to low molecular weight compounds, liposomes, and even entire viruses ([35], [39], [40], [41]).
(§2) To assess protein-protein and protein-lipid interactions, MST experiments were performed using a Monolith NT.115 (Nanotemper Technologies). […] Samples were loaded into MST standard capillaries, and MST measurements were performed using an 80% laser power setting. The dissociation constant Kd was obtained by plotting the fraction bound against the logarithm of ligand concentration, using Prism software to fit a binding curve to the data point using the "one site specific" binding option. All MST measurements were performed in triplicate, with each set of experiments including a negative control to rule out nonspecific binding.

A1BG = biological target: T2, A1BG (Homo sapiens, UniProt P04217); experiment: MST lipid binding to A1BG; conditions: A1BG alone
T2 construct: made in house; host or cells: E. coli BL21
T2 sequence (P04217 22-495): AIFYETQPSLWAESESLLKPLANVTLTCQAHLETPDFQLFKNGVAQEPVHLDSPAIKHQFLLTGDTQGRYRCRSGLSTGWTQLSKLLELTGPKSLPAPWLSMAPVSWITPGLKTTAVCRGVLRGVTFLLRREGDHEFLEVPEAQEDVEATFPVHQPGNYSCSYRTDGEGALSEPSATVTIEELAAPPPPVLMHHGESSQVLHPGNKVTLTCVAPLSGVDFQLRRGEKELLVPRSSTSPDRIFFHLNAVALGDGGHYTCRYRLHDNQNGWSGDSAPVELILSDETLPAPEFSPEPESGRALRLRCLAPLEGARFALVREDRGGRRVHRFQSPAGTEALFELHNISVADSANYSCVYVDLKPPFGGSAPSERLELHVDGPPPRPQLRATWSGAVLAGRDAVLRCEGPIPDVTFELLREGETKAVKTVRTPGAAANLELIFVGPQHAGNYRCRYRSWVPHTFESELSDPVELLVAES
Protocol: as §2

CRISP2 [3] = biological target: T3, CRISP2 (Homo sapiens, UniProt P16562); experiment: Microscale thermophoresis (MST) binding to fluorescently labeled CRISP2; conditions: Kd of cholesterol sulfate binding by CRISP2 in the presence of Ig1, MST; CRISP2-Ig1
T3 sequence (P16562 22-243): T1 sequence (P16562 22-243)
T3 sequence (P04217 with tags, fused parts or gaps partner): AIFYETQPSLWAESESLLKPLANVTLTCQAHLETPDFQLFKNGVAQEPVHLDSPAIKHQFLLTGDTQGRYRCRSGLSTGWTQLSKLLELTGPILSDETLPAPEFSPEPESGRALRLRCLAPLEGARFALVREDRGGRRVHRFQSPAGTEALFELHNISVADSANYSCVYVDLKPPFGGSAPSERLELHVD
Protocol: as §1, §2

CRISP2^L98G Y99P = biological target: T4, CRISP2^L98G Y99P (Homo sapiens, UniProt P16562, L98G/Y99P); experiment: MST binding to labeled CRISP2 L98G Y99P mutant
T4 construct: made in house; host or cells: E. coli BL21
T4 sequence (P16562 22-243 L98G/Y99P): T1 sequence (P16562 22-243) with L77G, Y78P
Protocol: as §2

“Ig3 domain of A1BG, purified (domain or fragment)” was tested, and the Kd [1] was 13.8 nM.
For CCCCCCCCCCCCCCCC(=O)O [palmitic acid], the Kd (CRISP2 [2]; Kd of palmitic acid binding by CRISP2, MST, CRISP2 alone) was 64600 ± 20700 nM, the Kd (CRISP2 [2]; Kd of palmitic acid binding by CRISP2 in the presence of A1BG, MST, CRISP2+A1BG) was 70000 ± 22700 nM and the “Kd of palmitic acid binding by A1BG” value (A1BG) was “did not bind”.
In the case of CC(C)CCC[C@@H](C)[C@H]1CC[C@H]2[C@@H]3CC=C4C[C@@H](OS(=O)(=O)O)CC[C@]4(C)[C@H]3CC[C@]12C [cholesterol sulfate], the Kd (CRISP2 [2]; Kd of cholesterol sulfate binding by CRISP2 + EDTA + MgCl2, MST, EDTA 5 mM, MgCl2 10 mM) is reported as 70 ± 20 nM, the Kd (CRISP2 [2]; Kd of cholesterol sulfate binding by CRISP2, MST, CRISP2 alone) is reported as 3210 nM and 2630 nM and the Kd (CRISP2 [2]; Kd of cholesterol sulfate binding by CRISP2 in the presence of Ig4, MST, CRISP2-Ig4) is reported as 2050 ± 760 nM. The “Kd of cholesterol sulfate binding by CRISP2 in the presence of A1BG” value (CRISP2 [2]; MST, equimolar concentration of A1BG) was “blocked”, the Kd (CRISP2 [3]) was 4 ± 1.98 µM and the “Kd of cholesterol sulfate binding by CRISP2 L98G Y99P in the presence of Ig3” value (CRISP2^L98G Y99P) was “inhibited”.
Molecule “Ig1 domain of A1BG, purified (domain or fragment)” has a Kd [1] of 38.7 nM.
